#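 In this assay, cells in 96-well plates receive the compound at five concentrations for 48 hours. Endpoints are linearly interpolated between the surrounding concentrations. TGI marks complete inhibition of growth.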
# Legend:
# Test in all cases: NCI-60 cell line screen, 48 h
# [1] = tested on: BT-549 breast
# [2] = tested on: SNB-19 CNS
# [3] = tested on: U251 CNS
# [4] = tested on: NCI-H460 lung
# [5] = tested on: HCT-15 colon
# [6] = tested on: SN12C renal
# [7] = tested on: COLO 205 colon
# [8] = tested on: TK-10 renal
# [9] = tested on: RXF 393 renal
# [10] = tested on: K-562 leukemia
# [11] = tested on: KM12 colon
# [12] = tested on: SK-MEL-28 melanoma
# [13] = tested on: ACHN renal
# [14] = tested on: RPMI-8226 leukemia
# [15] = tested on: HT29 colon
# [16] = tested on: NCI-H23 lung
# [17] = tested on: UACC-257 melanoma
# [18] = tested on: SK-MEL-2 melanoma
# [19] = tested on: OVCAR-3 ovarian
# [20] = tested on: SR leukemia
# [21] = tested on: HS 578T breast
# [22] = tested on: SW-620 colon
# [23] = tested on: A498 renal
# [24] = tested on: NCI/ADR-RES ovarian
# [25] = tested on: OVCAR-8 ovarian
# [26] = tested on: HCT-116 colon
# [27] = tested on: MDA-MB-231 breast
# [28] = tested on: MOLT-4 leukemia
# [29] = tested on: SF-295 CNS
# [30] = tested on: PC-3 prostate
# [31] = tested on: LOX IMVI melanoma
# [32] = tested on: 786-0 renal
# [33] = tested on: SNB-75 CNS
# [34] = tested on: HL-60(TB) leukemia
# [35] = tested on: UO-31 renal
# [36] = tested on: NCI-H226 lung
# [37] = tested on: NCI-H522 lung
# [38] = tested on: IGROV1 ovarian
# [39] = tested on: CAKI-1 renal
# [40] = tested on: OVCAR-4 ovarian
# [41] = tested on: MDA-MB-435
# [42] = tested on: MDA-N
# [43] = tested on: DU-145 prostate
# [44] = tested on: MCF7 breast
# [45] = tested on: OVCAR-5 ovarian
# [46] = tested on: SF-268 CNS
# [47] = tested on: MALME-3M melanoma
# [48] = tested on: HOP-62 NSCLC
# [49] = tested on: SK-MEL-5 melanoma
# [50] = tested on: HCC-2998 colon
# [51] = tested on: EKVX NSCLC
# [52] = tested on: UACC-62 melanoma
# [53] = tested on: SK-OV-3 ovarian
# [54] = tested on: A549 NSCLC
# [55] = tested on: CCRF-CEM leukemia
# [56] = tested on: M14 melanoma
# [57] = tested on: HOP-92 NSCLC
# [58] = tested on: T-47D breast
compound,measurement,setting,value
CCC[C@@H]1C(=O)N=C(N)N1C(=O)OCc1ccccc1,TGI,[1],> 100 µM
same,TGI,[2],> 100 µM
same,TGI,[3],> 100 µM
same,TGI,[4],> 100 µM
same,TGI,[5],> 100 µM
same,TGI,[6],> 100 µM
same,TGI,[7],> 100 µM
same,TGI,[8],> 100 µM
same,TGI,[9],> 100 µM
same,TGI,[10],> 100 µM
same,TGI,[11],> 100 µM
same,TGI,[12],> 100 µM
same,TGI,[13],> 100 µM
same,TGI,[14],> 100 µM
same,TGI,[15],> 100 µM
same,TGI,[16],> 100 µM
same,TGI,[17],> 100 µM
same,TGI,[18],> 100 µM
same,TGI,[19],> 100 µM
same,TGI,[20],> 100 µM
same,TGI,[21],> 100 µM
same,TGI,[22],> 100 µM
same,TGI,[23],> 100 µM
same,TGI,[24],> 100 µM
same,TGI,[25],> 100 µM
same,TGI,[26],> 100 µM
same,TGI,[27],> 100 µM
same,TGI,[28],> 100 µM
same,TGI,[29],> 100 µM
same,TGI,[30],> 100 µM
same,TGI,[31],> 100 µM
same,TGI,[32],> 100 µM
same,TGI,[33],> 100 µM
same,TGI,[34],> 100 µM
same,TGI,[35],> 100 µM
same,TGI,[36],> 100 µM
same,TGI,[37],> 100 µM
same,TGI,[38],> 100 µM
same,TGI,[39],> 100 µM
same,TGI,[40],> 100 µM
same,TGI,[41],> 100 µM
same,TGI,[42],> 100 µM
same,TGI,[43],> 100 µM
same,TGI,[44],> 100 µM
same,TGI,[45],> 100 µM
same,TGI,[46],> 100 µM
same,TGI,[47],> 100 µM
same,TGI,[48],> 100 µM
same,TGI,[49],> 100 µM
same,TGI,[50],> 100 µM
same,TGI,[51],> 100 µM
same,TGI,[52],> 100 µM
CCOC(=O)N1CCC(=C2c3ccc(Cl)cc3CCc3cccnc32)CC1,TGI,[53],29.1 µM
same,TGI,[4],18.9 µM
same,TGI,[5],23.4 µM
same,TGI,[6],24.4 µM
same,TGI,[7],21.6 µM
same,TGI,[8],29.3 µM
same,TGI,[9],22.7 µM
same,TGI,[10],49.7 µM
same,TGI,[54],> 100 µM
same,TGI,[11],24.3 µM
same,TGI,[12],20.3 µM
same,TGI,[13],15.8 µM
same,TGI,[14],32.9 µM
same,TGI,[15],16.9 µM
same,TGI,[16],35.6 µM
same,TGI,[17],29.6 µM
same,TGI,[55],> 100 µM
same,TGI,[18],27.4 µM
same,TGI,[19],22.5 µM
same,TGI,[20],14.2 µM
same,TGI,[21],> 100 µM
same,TGI,[22],34.6 µM
same,TGI,[23],8.12 µM
same,TGI,[56],29.1 µM
same,TGI,[24],23.6 µM
same,TGI,[25],32.5 µM
same,TGI,[26],32.4 µM
same,TGI,[27],42.5 µM
same,TGI,[28],33.3 µM
same,TGI,[30],25.7 µM
same,TGI,[31],74.6 µM
same,TGI,[32],33.4 µM
same,TGI,[34],22.9 µM
same,TGI,[35],4.49 µM
same,TGI,[36],40.6 µM
same,TGI,[38],8.22 µM
same,TGI,[40],17.1 µM
same,TGI,[41],24.9 µM
same,TGI,[42],16.8 µM
same,TGI,[43],26.9 µM
same,TGI,[57],24.2 µM
same,TGI,[44],23.8 µM
same,TGI,[58],35 µM
same,TGI,[45],37.9 µM
same,TGI,[47],24.7 µM
same,TGI,[48],36.3 µM
same,TGI,[49],9.22 µM
same,TGI,[50],23.6 µM
same,TGI,[51],28.1 µM
same,TGI,[52],18.9 µM

# — PubChem BioAssay (NCI)
